Values joined by “and” are separate entries in the source; they are usually repeats but may differ in a detail not shown here. Identical values can stand only once.
System: CMV
Assay: Study HDP-CDV-201: prevention or control of CMV infection in R+ HSCT recipients (efficacy)
Format: in vivo, human (adult allogeneic HSCT recipients)
Description: The clinical study of the current invention (HDP-CDV-201) was a 9-11 week randomized, placebo-controlled, double-blind, dose-escalation study (40 mg weekly [QW], 100 mg QW, 200 mg QW, 200 mg twice-weekly [BIW], and 100 mg BIW) of HDP-CDV for the prevention of CMV infection post-HCT. Treatment was initiated at the time of engraftment and continued until Week 13 post-HCT. HDP-CDV, at various doses, was active and well tolerated in the prevention CMV infection or disease.
Clinical Studies of HDP-CDV were performed and described in detail in the following Examples. For example, HDP-CDV-201 is a placebo-controlled, dose-escalating trial in HSCT CMV (R+) recipients, evaluating the ability of HDP-CDV to prevent or control CMV infection was carried out. Five cohorts were established in which participants or subjects received either placebo or the HDP-CDV orally, in doses ranging from 40 mg weekly (QW) to 200 mg twice weekly (BIW). Subjects who were post-HSCT were enrolled at the time of engraftment and randomized to HDP-CDV or placebo (3 to 1 ratio) and received blinded therapy until approximately 100 day post-transplantation. HDP-CDV doses were 40 mg QW, 100 mg QW, 200 mg QW, 200 mg BIW and 100 mg BIW. Escalation to the next dose was decided by the data monitoring committee after review of the safety data from the previous Cohort. Subjects who developed CMV disease or CMV infection requiring pre-emptive therapy with local standard of care were discontinued from blinded therapy and followed for 4 weeks. Subjects who completed treatment with blinded therapy were followed for 8 weeks post-therapy.
The primary endpoint was defined as the incidence of CMV disease at any time during treatment or CMV DNAemia≧200 copies/mL at the end of treatment. All subjects who received at least one dose of drug/placebo and had at least one efficacy evaluation post baseline were included in the primary analysis, regardless of their CMV DNAemia status (negative or positive) at baseline (mITT population). Results for the pooled HDP-CDV Cohorts and for each Cohort separately were analyzed versus that for pooled placebo.
The primary efficacy measure for this study was treatment failure, defined as the occurrence of CMV infection, defined as CMV DNAemia>200 copies/mL at the End of Treatment or diagnosis of CMV disease at any time during the treatment period. For the analysis, the following definitions apply:
For subjects who completed the treatment phase of the study, the End of Treatment was defined as the latest assessment from date of the last dose of study drug and up to 7 days for QW dosing, or the date of the last dose of study drug and up to 4 days for BIW dosing. For subjects who discontinued during the treatment phase of the study, the End of Treatment was defined as the date of the last dose of study drug.
The time to event was defined as the period between FDD and date of first occurrence of the event of interest (inclusive). The events included onset of CMV DNAemia, onset of CMV disease, and discontinuation because of excluded anti-CMV medications. Time to event/onset was derived as (the event/onset date—FDD)+1.
As detailed in the Statistical Analysis Plan, a modified CMV stratum was defined prior to conducting the statistical analysis based upon polymerase chain reaction (PCR) results from the central laboratory. If any positive CMV DNA value in plasma was collected before the first dose of study drug (including Screening, Pre-dose, (combined Screening/Pre-dose), CMV for stratification, and FDD), then the subject was placed into the modified CMV positive (≧100 copies/mL) stratum, otherwise the subject was in the modified CMV negative stratum. […]

[1] = 200 mg QW, modified CMV negative stratum
[2] = 200 mg QW, whole study period, CMV DNA negative at baseline
[3] = All HDP-CDV, CMV modified strata: negative
[4] = All HDP-CDV, CMV modified strata: positive

## CCCCCCCCCCCCCCCCOCCCOP(=O)(O)COC(CO)Cn1ccc(N)nc1=O (stereo not drawn) [HDP-CDV]
200 mg QW, mITT
  Subjects Receiving Antiviral Therapy and/or had CMV disease: 7 (17.9%) subjects (%)
  Subjects without a CMV event: 32 (82.1%) subjects (%)
  Time to Antiviral Therapy, Median: 40.0 days
200 mg QW, mITT, missing=infection
  Rate of CMV Disease or End of Treatment CMV Infection (≧200 copies/ml): 31% and 30.8%
200 mg QW, mITT, post hoc
  Rate of CMV DNAemia ≧1000 copies/mL during the treatment period: 18% and 17.9%
200 mg QW, mITT, censored values not included
  Time to Antiviral Therapy, Mean: 38.1 days
[1]
  % CMV Event Rate: Incidence of CMV DNAemia >100 copies/mL During Treatment (Fisher analysis, ref 14.3.3.2.1): 7 (24.1%) subjects (%)
  % CMV Event Rate: Incidence of CMV DNAemia ≧1,000 copies/mL at any time during treatment: 2 (6.9%) subjects (%)
  Combined CMV event rate (CMV disease, viremia requiring treatment, viremia ≧1000 copies/mL): 13.8%
  Subjects Who Had CMV-related Event (CMV disease, CMV DNAemia ≧1,000 c/mL or initiation of anti-CMV treatment): 4 (13.8%) subjects (%)
  Subjects without a CMV-related event: 25 (86.2%) subjects (%)
200 mg QW, plasma CMV DNA negative at baseline, mITT
  Developed CMV DNAemia (≧100 copies/mL) during the treatment period: 7 (23.3%) N(%)
200 mg QW, treatment period, CMV DNA negative at baseline
  Time to CMV DNAemia (≧100 copies/mL), Median: 15.0 days
200 mg QW, treatment period, CMV DNA negative at baseline, censored values not included
  Time to CMV DNAemia (≧100 copies/mL), Mean: 22.6 days
[2]
  Number of Subjects who had CMV DNAemia (≧100 copies/mL) by the end of study: 11
  Time to CMV DNAemia (≧100 copies/mL), Mean: 36.3 days
  Time to CMV DNAemia (≧100 copies/mL), Median: 36.0 days
8 weeks follow-up
  subjects with emergence of viremia between end of treatment and end of treatment-free follow-up: less than 10%
All HDP-CDV (N = 133), CMV modified strata: negative
  % CMV Event Rate, primary: CMV DNAemia >200 copies/mL at end of treatment OR CMV disease during treatment: 21 (15.8%) subjects (%)
All HDP-CDV (N = 162), aGVHD strata: negative
  % CMV Event Rate, primary: CMV DNAemia >200 copies/mL at end of treatment OR CMV disease during treatment: 41 (25.3%) subjects (%)
All HDP-CDV (N = 171), mITT
  % CMV Event Rate, primary: CMV DNAemia >200 copies/mL at end of treatment OR CMV disease during treatment: 43 (25.1%) subjects (%)
[3]
  Difference (HDP-CDV minus placebo) in infection rate: −14.0%
  Difference (HDP-CDV minus placebo) in rate of CMV DNAemia ≧1,000 copies/ml: −25.9%
  Rate of CMV DNAemia ≧1,000 copies/ml during the treatment period: 6.0%
  Rate of CMV Disease or End of Treatment CMV Infection: 15.8%
[4]
  Difference (HDP-CDV minus placebo) in rate of CMV DNAemia ≧1,000 copies/mL: −28.1%
  Rate of CMV DNAemia ≧1,000 copies/mL during the treatment period: 55.3%
All HDP-CDV, aGVHD randomization strata: negative
  Rate of CMV Disease or End of Treatment CMV Infection: 25.3%
All HDP-CDV, aGVHD strata: negative
  Difference (HDP-CDV minus placebo) in infection rate: −6.8%
All HDP-CDV, mITT
  Difference (HDP-CDV minus placebo) in rate of CMV DNAemia ≧1000 copies/mL: −25.4%
  Difference (HDP-CDV minus placebo) in rate of CMV disease or end of treatment CMV infection: −12.1%
All HDP-CDV, mITT, post hoc
  Rate of CMV DNAemia ≧1000 copies/mL during the treatment period: 17.0%
All HDP-CDV, modified CMV negative stratum
  % CMV Event Rate: Incidence of CMV DNAemia ≧1,000 copies/mL at any time during treatment: 8 (6.0%) subjects (%)
All cohorts combined, aGVHD positive strata (2 of 9)
  CMV disease/infection rate (primary endpoint): 22.2%
Cohorts 100 mg QW, 200 mg QW and 100 mg BIW
  CMV DNAemia rate over whole study period: ~35%
Combined 100 mg QW, 200 mg BIW, 100 mg BIW (N = 86), CMV modified strata: negative
  % CMV Event Rate, primary: CMV DNAemia >200 copies/mL at end of treatment OR CMV disease during treatment: 8 (9.3%) subjects (%)
Exploratory analysis, cohorts that met endpoint (200 mg QW, 200 mg BIW, 100 mg BIW combined), mITT
  Rate of CMV DNAemia ≧1000 copies/mL during the treatment period: 11% and 10.9%
Exploratory analysis, cohorts that met endpoint, mITT
  Difference (HDP-CDV minus placebo) in rate of CMV DNAemia ≧1000 copies/mL: −23.2%
Higher doses (≧200 mg QW)
  Incidence of composite endpoint (initiation of anti-CMV therapy or CMV disease or CMV DNAemia >1,000 copies/mL): less than 15%
Pooled HDP-CDV, mITT
  Incidence of CMV disease or initiation of anti-CMV preemptive therapy: 22% and 21.6%
Across doses of 100 mg QW and higher
  overall rates of CMV DNAemia detectable at any time during treatment: 17.4 to 23.8%
Doses of 100 mg QW or higher (4/146)
  subjects who developed CMV disease: 2.7%
Doses of 200 mg per week or higher (1/119)
  subjects who developed CMV disease: 0.8%
Doses ≧100 mg QW combined, aGVHD positive strata (1 out of 7)
  CMV disease/infection rate (primary endpoint): 14.3%
Pooled 100 mg QW, 200 mg BIW, 100 mg BIW, CMV negative stratum (8 of 86)
  failure rate, exploratory endpoint: 9%
